Reference: ChEMBL document CHEMBL1201862, “PubChem BioAssay data set” (2004)
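96-well plates; 48 h exposure; 5 concentrations. Endpoints by linear interpolation between flanking doses. Not reached: highest tested concentration assigned. GI50: concentration for 50% inhibition of growth.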 The source made the active and inactive calls. Cut-off read from the data, not from the text of the source: active = GI50 up to about 1.1 µM and inactive = higher.

Legend:
Test in all cases: DTP human tumour cell line panel, 48 h
DMS-114 = test system: DMS-114
UO-31 = test system: UO-31
HOP-62 = test system: HOP-62
HOP-92 = test system: HOP-92
U-251 = test system: U-251
DU-145 = test system: DU-145
NCI/ADR-RES = test system: NCI/ADR-RES
SF-295 = test system: SF-295
M14 = test system: M14
SW-620 = test system: SW-620
MDA-N = test system: MDA-N
SF-268 = test system: SF-268
IGROV-1 = test system: IGROV-1
TK-10 = test system: TK-10
A549 = test system: A549
SK-MEL-2 = test system: SK-MEL-2
CCRF-CEM = test system: CCRF-CEM
NCI-H226 = test system: NCI-H226
Hs-578T = test system: Hs-578T
MDA-MB-231 = test system: MDA-MB-231

Structure (SMILES)	GI50 (DMS-114)	GI50 (UO-31)	GI50 (HOP-62)	GI50 (HOP-92)	GI50 (U-251)	GI50 (DU-145)	GI50 (NCI/ADR-RES)	GI50 (SF-295)	GI50 (M14)	GI50 (SW-620)	GI50 (MDA-N)	GI50 (SF-268)	GI50 (IGROV-1)	GI50 (TK-10)	GI50 (A549)	GI50 (SK-MEL-2)	GI50 (CCRF-CEM)	GI50 (NCI-H226)	GI50 (Hs-578T)	GI50 (MDA-MB-231)
C=C1C(=O)OC2/C=C(\CO)C3OC3C3OC3(C)CC(OC(=O)/C(=C/C)COC(C)=O)C12 (configuration not stated)	5.87 µM (inactive)	10.6 µM (inactive)	21.6 µM (inactive)	2.01 µM (inactive)	5 µM (inactive)	17.1 µM (inactive)	12.1 µM (inactive)	10 µM (inactive)	2.75 µM (inactive)	1.35 µM (inactive)	3.58 µM (inactive)	11.2 µM (inactive)	13.2 µM (inactive)	2.94 µM (inactive)	18.6 µM (inactive)	3.31 µM (inactive)	2.29 µM (inactive)	21.6 µM (inactive)	3.7 µM (inactive)	6.04 µM (inactive)
CC(=O)C(O)N1C(=O)C=CC1=O (configuration not stated)	5.86 µM (inactive)	5.86 µM (inactive)	19.5 µM (inactive)	2.07 µM (inactive)	17.4 µM (inactive)	12.8 µM (inactive)	13.2 µM (inactive)	18.3 µM (inactive)	4.23 µM (inactive)	1.71 µM (inactive)	18.6 µM (inactive)	7.05 µM (inactive)	21.1 µM (inactive)	2.53 µM (inactive)	–	17.5 µM (inactive)	–	12.9 µM (inactive)	7.38 µM (inactive)	5.05 µM (inactive)
N#CC1=C(N)N2C(=O)/C(=C/c3ccccc3)SC2C(c2nc3ccccc3[nH]2)=C1c1ccccc1 (configuration not stated)	2.16 µM (inactive)	1.93 µM (inactive)	2.44 µM (inactive)	0.687 µM (active)	2.44 µM (inactive)	–	–	2.53 µM (inactive)	2.44 µM (inactive)	3.68 µM (inactive)	–	2.42 µM (inactive)	2.19 µM (inactive)	2.42 µM (inactive)	3.87 µM (inactive)	2.04 µM (inactive)	1.96 µM (inactive)	1.93 µM (inactive)	–	–
CC(NCCS(=O)(=O)O)C(=O)O (configuration not stated)	> 100 µM (inactive)	> 100 µM (inactive)	> 100 µM (inactive)	> 100 µM (inactive)	> 100 µM (inactive)	–	> 100 µM (inactive)	> 100 µM (inactive)	–	> 100 µM (inactive)	–	> 100 µM (inactive)	> 100 µM (inactive)	–	> 100 µM (inactive)	> 100 µM (inactive)	> 100 µM (inactive)	> 100 µM (inactive)	–	–
COc1ccc2nc(NC(=O)C(=O)C(C(=O)c3ccccc3-c3ccccc3)C3OC(=O)c4ccccc43)sc2c1 (configuration not stated)	16.6 µM (inactive)	20.7 µM (inactive)	16.2 µM (inactive)	16.5 µM (inactive)	12.8 µM (inactive)	–	–	27.2 µM (inactive)	19 µM (inactive)	23.8 µM (inactive)	–	20 µM (inactive)	25.8 µM (inactive)	25.2 µM (inactive)	23.8 µM (inactive)	13.6 µM (inactive)	15.5 µM (inactive)	5.27 µM (inactive)	–	–
Cc1c(/C=N/NC(=O)c2ccccc2)c(=O)n(-c2ccccc2)n1C	> 100 µM (inactive)	> 100 µM (inactive)	> 100 µM (inactive)	> 100 µM (inactive)	> 100 µM (inactive)	–	–	> 100 µM (inactive)	> 100 µM (inactive)	> 100 µM (inactive)	–	> 100 µM (inactive)	> 100 µM (inactive)	> 100 µM (inactive)	> 100 µM (inactive)	> 100 µM (inactive)	> 100 µM (inactive)	> 100 µM (inactive)	–	–
